Test results published in US11034725B2, “Compositions and methods for treating cardiovascular disease” (Genentech, Inc., priority 2016, dated 2021).
“Also recorded” adds a separate entry of the source. Where two headings read alike, the source gives them in different places. Bridge positions count the residues as written; N and C are the ends. Peptide text beside a SMILES is read from it.

Legend:
[1] = molecular target: T1, PCSK9Δhelix (Homo sapiens, UniProt Q8NBP7); test: Surface plasmon resonance biosensor-based affinity analysis (Example 4); type: binding
T1 construct: Human PCSK9 construct M1-Q692 with an engineered TEV site (residue deletion Y166, R167); made in house; host or cells: CHO

[2] = molecular target: T2, PCSK9 (Homo sapiens, UniProt Q8NBP7); test: as above; type: binding; conditions: for Kd: Table 7, Target PCSK9, SPR at 20° C.
[3] = molecular target: T3, PCSK9-R167A:R215A:R218A (PCSK9-AAA) (Homo sapiens, UniProt Q8NBP7, R167A/R215A/R218A); test: FXIa cleavage assay of the P′ helix of PCSK9-AAA; type: biochemical; conditions: immunoblot with anti-N-terminal peptide antibody
T3 construct: made in house; host or cells: CHO (transient)
Protocol: The PCSK9-AAA mutant (2.6 μM) was incubated with 50 nM FXIa (Haematologic Technologies) in Tris buffer (50 mM Tris, 150 mM NaCl, 4 mM CaCl2, pH 8.0) at room temperature for the indicated time periods. […] After SDS-PAGE of the samples, proteins were transferred to a nitrocellulose membrane using iBlot (Invitrogen). Proteins were then probed with a polyclonal rabbit antibody (1:3000) raised against the PCSK9 N-terminal peptide (^153[…]^168 (SEQ ID NO: 5)), followed with HRP-conjugated donkey anti-rabbit antibody (1:5000, GE Healthcare) using iBind (Invitrogen). PCSK9 signals were detected by ECL (GE Healthcare) and visualized by autoradiography.
Proteins were then probed with a polyclonal rabbit antibody (1:3000) raised against the PCSK9 N-terminal peptide (^153[…]^168 (SEQ ID NO: 5)), followed with HRP-conjugated donkey anti-rabbit antibody (1:5000, GE Healthcare) using iBind (Invitrogen). PCSK9 signals were detected by ECL (GE Healthcare) and visualized by autoradiography.

[4] = tested on: His-EGF(A)-Fc; test: His-EGF(A)-Fc TR-FRET counterscreen
[5] = molecular target: T2, PCSK9; test: PCSK9/EGF(A) TR-FRET binding assay; conditions: TR-FRET, read-out: PCSK9/EGF(A) IC50
[6] = molecular target: T1, PCSK9Δhelix; test: PCSK9Δhelix/Ab20 TR-FRET binding assay
[7] = molecular target: T2, PCSK9; test: Phage competition ELISA; type: binding
Protocol: The sequences of selected clones were fused to the N-terminus of M13 major coat protein (p8) using Kunkel mutagenesis method (Kunkel et al., Methods Enzymol 154, 367-82). The resulting construct was transformed to E. Coli. XL1 blue, single colony was grown in 1 mL 2YT supplemented with 50 μg/mL carbenicillin, 10 μg/mL Tetracycline and M13 KO7 helper phage at 37° C. for 2 h, Kanamycin was added to final concentration of 25 μg/mL, growth was continued at 37° C. for 6 h. The culture was transferred to 30 mL 2YT supplemented with 50 μg/mL carbenicillin and 25 μg/mL kanamycin and grown at 37° C. overnight. The next day, the phage was harvested and purified using the standard protocol (Tonikian et al. Nat Protoc. 2007; 2(6):1368-86). The serially diluted phage solution was applied to the biotinylated PCSK9 and biotinylated PCSK9Δhelix that had been immobilized for 15 min on a 384-well MaxiSorp ImmunoPlate previously coated with 5 μg/mL NeutrAvidin and blocked with Block buffer. The plate was incubated at 4° C. for 1 h, washed 10 times with PT buffer (PBS, 0.05% Tween® 20). The bound phage was detected with anti-M13-HRP and the ELISA signal was read at OD450 nm. The background was ELISA signal that the phage directly bound to NeutrAvidin-coated plate. The data was plotted and the curve fitted with KaleidaGraph. Sub-saturating phage concentration that gave 80% of maximum binding signal was determined by the binding curve.
IC50 measurements were performed by mixing a fixed sub-saturating concentration of peptide-displaying phage with a serial dilution of synthetic peptides in PBT buffer. The mixture was added to plates coated with PCSK9 and PCSK9Δhelix and incubated for 1 h at room temperature. The plates were then washed 10 times with PBT buffer and the bound phage was detected by anti-M13-HRP. The data was plotted, curve fitted and IC50 derived by use of KaleidaGraph. All measurements were repeated 3 times independently.

[8] = molecular target: T2, PCSK9; test: Cell surface LDLR assay with HepG2 cells; type: cell-based; conditions: HepG2 cells, 15 μg/mL PCSK9, 4 h, FACS
Protocol: HepG2 cells (ATCC; Manassas, Va.) were seeded into 48 well plates (Corning; Corning, N.Y.) at 1×10^5 cells per well in high glucose medium (DMEM, Gibco; Carlsbad, Calif.) containing 2 mM glutamine (Sigma), penicillin/streptomycin (Gibco) and 10% FBS (Sigma; St. Louis, Mo.) and incubated overnight. Then the medium was changed to DMEM containing 10% lipoprotein deficient serum (LPDS, Sigma). After 24 h, 15 μg/mL PCSK9 was incubated with peptides or Fab33 for 30 min, added to the cells and incubated at 37° C. for 4 h. Cells were rinsed with PBS and detached using Cell Dissociation Buffer in PBS (Gibco). After centrifugation, the resuspended cells were incubated with 1:20 anti LDLR antibody (Progen Biotechnik; Heidelberg, Germany) on ice for 10 min. The samples were then washed with PBS and incubated with 1:200 diluted goat anti mouse IgG (H+L) Alexa Fluor 488 (Invitrogen; Carlsbad, Calif.) on ice for 5 min. After two PBS washes, cells were re suspended in PBS containing 2.5 μg/mL of propidium iodide and analyzed on a dual laser flow cytometer (FACScan, Becton Dickinson; Franklin Lakes, N.J.). Relative fluorescence units (RFUs) were used to quantify LDLR expression levels on the HepG2 cell surface. Cell surface LDLR levels were expressed as percent of LDLR levels measured in the absence of PCSK9 (=control).
The effect of Compound 229 on PCSK9-mediated LDL receptor degradation was measured in a HepG2 cell assay as previously described (Zhang et al., J Biol Chem. 2014 Jan. 10; 289(2):942-55). Peptides at various concentrations were preincubated with 15 μg/mL PCSK9 in the presence of 0.5% DMSO for 30 min prior to the addition to cells. After a 4 h incubation, the cells were processed for measurements of LDL receptor surface levels by flow cytometry as described (Zhang et al., J Biol Chem. 2014 Jan. 10; 289(2):942-55) (FIG. 37).

[9] = molecular target: T1, PCSK9Δhelix; test: SPR affinity measurements of peptide binding (Example 8); conditions: Table 10, binding to PCSK9Δhelix
Protocol: A Biacore™ T100 or Biacore™ 8K was adjusted to 20° C. The system was primed into assay buffer which consisted of 25 mM HEPES, pH 7.5, 0.15 M NaCl, 0.005% (v/v) Tween® 20, 0.2 mM tris(2-carboxyethyl)phosphine and optionally contained 0.1% (w/v) carboxymethylated dextran (average MW 10 kDa) and 0.2% (w/v) PEG (average MW 3450 Da) in order to reduce potential non-specific binding. Peptides were assayed by capturing fresh PCSK9 or PCSK9Δhelix after each binding regeneration cycle by exploiting a histidine tag and an NTA-sensor chip. The surface was charged with (His)8-tagged PCSK9 (approximately 800 RU captured). […] Compound 19 and Compound 20 were assayed in six serial two-fold dilutions from 100 nM to 3.1 nM. All peptides were analyzed in duplicate by serial injection (50 μL/min for 1 min) of peptide dilution from low to high concentration. The surface was then stripped of target by injecting 0.5 M EDTA, pH 8.0. This sequence was repeated for each peptide binding cycle and blank control cycles.
All SPR data was recorded in duplicate for five, or more serial dilutions, except for the two fusion peptides, which produced extremely low fitting error. Multicycle data (i.e. separate curves for each concentration) and single cycle data (i.e. single curve with serial injection of each concentration) were double referenced and fitted to an interaction model using BIAevaluation software. Peptide binding to PCSK9 produced deviations from a simple 1:1 binding interaction model that required application of a two-state model for determination of Kd while interactions with PCSK9Δhelix conformed well to simple 1:1 binding. Kinetic curvature was poorly defined for rapidly dissociating peptides and in these cases Kd was estimated from a steady-state dose response plot. Kd values were reported with associated standard error, a measure of confidence in that parameter value.

[10] = Table 7, Target PCSK9Δhelix, SPR at 20° C., read-out: Kd
[11] = TR-FRET counterscreen, Table 8D, * = some inhibition at highest concentrations, not sufficient to fit an IC50
[12] = Example 4, read-out: Kd for PCSK9Δhelix
[13] = Table 8D, disulfide-cyclized extension peptides
[14] = TR-FRET, Example 7, read-out: PCSK9Δhelix/Ab20 IC50
[15] = TR-FRET, Table 8D, disulfide-cyclized extension peptides, read-out: PCSK9Δhelix/Ab20 IC50

CC(=O)N[C@H](C(=O)N[C@H](C(=O)N[C@@H](Cc1ccccc1)C(=O)N[C@H](C(=O)N[C@@H](CO)C(=O)N[C@@H](Cc1c[nH]c2cc(F)ccc12)C(=O)N[C@@H](CCC(=O)O)C(=O)N[C@@H](CCC(=O)O)C(=O)N[C@@H](Cc1ccc(O)cc1)C(=O)N[C@@H](CC(C)C)C(=O)N[C@@H](CC(=O)O)C(=O)N[C@@H](Cc1c[nH]c2ccccc12)C(=O)N[C@H](C(N)=O)C(C)C)[C@@H](C)O)C(C)C)[C@@H](C)O [Compound 3, Ac-TVFTS(W6fl)EEYLDWV-NH2]
Kd [1, 10]: 2580 nM
improvement of binding to PCSK9 relative to Pep2-8 ([2]; Table 7): about 3 fold
Kd [2]: 1400 nM

CC[C@H](C)[C@@H]1NC(=O)[C@H](CCCNC(=N)N)NC(=O)[C@H](CCC(N)=O)NC(=O)[C@H](CC(C)C)NC(=O)[C@H](CC(N)=O)NC(=O)[C@H](Cc2c[nH]c3ccccc23)NC(=O)[C@@H]2CCCN2C(=O)[C@H]([C@@H](C)CC)NC(=O)[C@H](Cc2ccccc2)NC(=O)[C@@H](NC(=O)CNC(=O)[C@@H](N)CO)CSSC[C@@H](C(N)=O)NC(=O)[C@H](CC(C)C)NC(=O)[C@H](CC(C)C)NC(=O)CNC1=O [Compound 26] (H-SGCFIPWNLQRIGLLC-NH2; disulfide 3-16)
Kd [1, 10]: 803 nM
effect on FXIa-mediated cleavage of the P′ helix of PCSK9-AAA [3]: accelerated the cleavage reaction; also recorded: able to increase the FXIa-mediated cleavage; also recorded: strongly accelerated the cleavage
Kd [2]: 29000 nM

CC[C@H](C)[C@@H]1NC(=O)[C@H](CCCNC(=N)N)NC(=O)[C@H](CCC(N)=O)NC(=O)[C@H](CC(C)C)NC(=O)[C@H](CC(N)=O)NC(=O)[C@H](Cc2c[nH]c3ccccc23)NC(=O)[C@@H]2CCCN2C(=O)[C@H](CC(C)C)NC(=O)[C@H](CCCNC(=N)N)NC(=O)[C@@H](NC(C)=O)CSSC[C@@H](C(N)=O)NC(=O)[C@@H]2CCCN2C(=O)[C@H](CC(C)C)NC(=O)CNC1=O [Compound 32] (Ac-CRLPWNLQRIGLPC-NH2; disulfide 1-14)
IC50 [4, 11]: > 50000 nM
Kd [1, 12]: 210 nM
IC50 [5, 13]: > 50000 nM
IC50 [6, 14]: ~1000 nM
IC50 [6, 15]: 970 nM
Kd [2]: 1300 nM

CC[C@H](C)[C@@H]1NC(=O)[C@H](CCCNC(=N)N)NC(=O)[C@H](C)NC(=O)[C@H](CC(C)C)NC(=O)[C@H](CC(N)=O)NC(=O)[C@H](Cc2c[nH]c3ccccc23)NC(=O)[C@@H]2CCCN2C(=O)[C@H](CC(C)C)NC(=O)[C@H](CCCNC(=N)N)NC(=O)[C@@H](NC(C)=O)CSSC[C@@H](C(N)=O)NC(=O)[C@@H]2CCCN2C(=O)[C@H](CC(C)C)NC(=O)CNC1=O [Compound 73] (Ac-CRLPWNLARIGLPC-NH2; disulfide 1-14)
IC50 [4, 11]: > 50000 nM
Kd [1, 12]: 167 nM
IC50 [5, 13]: > 50000 nM
IC50 [6, 15]: 915 nM
Kd [2]: 11000 nM

CC(=O)N[C@H](C(=O)N[C@H](C(=O)N[C@@H](Cc1ccccc1)C(=O)N[C@H](C(=O)N[C@@H](CO)C(=O)N[C@@H](Cc1c[nH]c2ccccc12)C(=O)N[C@@H](CCC(=O)O)C(=O)N[C@@H](CCC(=O)O)C(=O)N[C@@H](Cc1ccc(O)cc1)C(=O)N[C@@H](CC(C)C)C(=O)N[C@@H](CC(=O)O)C(=O)N[C@@H](Cc1c[nH]c2ccccc12)C(=O)N[C@H](C(N)=O)C(C)C)[C@@H](C)O)C(C)C)[C@@H](C)O [Pep2-8, reference compound]
competition with binding of phage-displayed Pep2-8 to PCSK9 [7]: inhibited phage-displayed Pep2-8 binding
IC50 ([4]; counterscreen, Example 7): > 50000 nM
effect on FXIa-mediated cleavage of the P′ helix of PCSK9-AAA [3]: largely prevented cleavage
EC50 [8]: 5000 to 10000 nM

Ac-PWNLVRIGLLR-NH2 [Compound 52]
Kd [9]: 2100 nM
IC50 ([4]; counterscreen, Example 7): > 50000 nM
Kd [1, 10]: 2600 nM
IC50 ([5]; Example 7): > 50000 nM
IC50 [6, 14]: 10200 nM
IC50 ([6]; Table 10, average ±S.D. of three experiments, read-out: Ab20 IC50): 15900 ± 1100 nM
Kd [2]: 17900 nM
